Data set [1] has as its target T1, Ectonucleotide pyrophosphatase/phosphodiesterase family member 1 (Homo sapiens, UniProt P22413).
T1 sequence (P22413 whole entry): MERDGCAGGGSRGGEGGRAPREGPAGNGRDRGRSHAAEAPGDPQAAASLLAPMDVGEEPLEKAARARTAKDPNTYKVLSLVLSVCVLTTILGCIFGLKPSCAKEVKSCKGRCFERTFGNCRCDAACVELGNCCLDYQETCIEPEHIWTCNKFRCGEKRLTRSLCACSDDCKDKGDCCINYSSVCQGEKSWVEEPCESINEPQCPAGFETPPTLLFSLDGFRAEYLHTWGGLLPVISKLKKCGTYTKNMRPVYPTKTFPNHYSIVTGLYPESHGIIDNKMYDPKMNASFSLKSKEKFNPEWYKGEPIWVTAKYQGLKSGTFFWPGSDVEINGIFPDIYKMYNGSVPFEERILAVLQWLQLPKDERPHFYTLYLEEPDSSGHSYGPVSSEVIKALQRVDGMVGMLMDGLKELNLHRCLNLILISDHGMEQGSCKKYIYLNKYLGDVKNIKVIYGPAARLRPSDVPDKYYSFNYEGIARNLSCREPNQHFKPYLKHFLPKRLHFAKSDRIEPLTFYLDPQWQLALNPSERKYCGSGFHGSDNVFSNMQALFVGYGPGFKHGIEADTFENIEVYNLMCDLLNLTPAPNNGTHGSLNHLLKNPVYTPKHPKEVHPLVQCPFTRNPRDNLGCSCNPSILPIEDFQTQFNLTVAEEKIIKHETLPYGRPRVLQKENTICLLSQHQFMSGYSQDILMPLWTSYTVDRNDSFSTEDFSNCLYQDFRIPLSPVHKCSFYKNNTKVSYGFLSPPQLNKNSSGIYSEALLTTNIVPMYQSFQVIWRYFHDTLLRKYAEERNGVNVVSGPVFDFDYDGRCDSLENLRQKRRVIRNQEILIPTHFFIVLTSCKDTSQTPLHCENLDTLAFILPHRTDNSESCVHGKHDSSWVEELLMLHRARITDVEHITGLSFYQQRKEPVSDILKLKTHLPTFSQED
The data set can be described thus: Inhibition of recombinant human ENPP1 using cGAMP as substrate assessed as inhibition of cGAMP hydrolysis preincubated for 5 to 10 mins followed by substrate addition and measured after 90 mins by AMP-Glo reagent based luminescence plate reader analysis.

Data set [2] in a line: Tmax in BALB/c mouse at 20 mg/kg, po measured after 24 hrs by LC-MS/MS analysis. The data set is classed as ADME, organism-based. The settings on record: in vivo.
Data set [3] can be described thus: AUC (0 to t) in BALB/c mouse at 20 mg/kg, po measured after 24 hrs by LC-MS/MS analysis. The data set is classed as ADME, organism-based. Also on record: time 24 hrs, dose 20 mg/kg, route po. Particulars: in vivo.
Data set [4] can be described thus: AUC (0 to infinity) in BALB/c mouse at 20 mg/kg, po measured after 24 hrs by LC-MS/MS analysis. Format: ADME, organism-based. Also on record: time 24 hrs, dose 20 mg/kg, route po. The settings on record: in vivo.
Data set [5] in a line: Tmax in BALB/c mouse at 5 mg/kg, iv measured after 24 hrs by LC-MS/MS analysis. The settings on record: in vivo. The data set is classed as ADME, organism-based.
The nature of data set [6]: Cmax in BALB/c mouse at 5 mg/kg, iv measured after 24 hrs by LC-MS/MS analysis. Particulars: in vivo. The data set is classed as ADME, organism-based. Also on record: dose 5 mg/kg, time 24 hrs, route iv.
Data set [7] can be described thus: AUC (0 to infinity) in BALB/c mouse at 5 mg/kg, iv measured after 24 hrs by LC-MS/MS analysis. The settings on record: in vivo. Format: ADME, organism-based. Also on record: dose 5 mg/kg, time 24 hrs, route iv.
The nature of data set [8]: Clearance in BALB/c mouse at 5 mg/kg, iv measured after 24 hrs by LC-MS/MS analysis. Particulars: in vivo. The data set is classed as ADME, organism-based.
The nature of data set [9]: Metabolic stability in human liver microsome assessed as parent compound remaining measured after 30 mins by LC/MS analysis. The settings on record: liver microsomes, read-out: Stability. The data set is classed as ADME.
Data set [10] can be described thus: Metabolic stability in mouse liver microsome assessed as intrinsic clearance by LC/MS analysis. The settings on record: liver microsomes, read-out: CLH. Format: ADME.
Data set [11] has as its target T2, Cytochrome P450 1A2 (Homo sapiens, UniProt P05177).
T2 sequence (P05177 whole entry): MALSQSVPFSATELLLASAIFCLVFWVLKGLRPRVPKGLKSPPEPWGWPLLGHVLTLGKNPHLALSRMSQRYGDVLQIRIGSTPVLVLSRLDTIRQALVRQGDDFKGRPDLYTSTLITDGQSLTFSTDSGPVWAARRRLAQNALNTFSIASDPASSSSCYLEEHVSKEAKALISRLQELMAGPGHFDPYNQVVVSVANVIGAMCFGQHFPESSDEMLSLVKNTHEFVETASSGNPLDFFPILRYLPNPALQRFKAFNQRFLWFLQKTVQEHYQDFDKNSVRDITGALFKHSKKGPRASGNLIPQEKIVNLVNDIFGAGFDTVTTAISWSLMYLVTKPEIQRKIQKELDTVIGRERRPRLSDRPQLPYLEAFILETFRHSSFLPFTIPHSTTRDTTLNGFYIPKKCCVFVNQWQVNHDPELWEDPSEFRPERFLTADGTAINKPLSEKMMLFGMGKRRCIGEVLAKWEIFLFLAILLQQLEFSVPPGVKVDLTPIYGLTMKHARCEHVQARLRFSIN
Description: Inhibition of CYP1A2 in human liver microsomes. The data set is classed as ADME, Microsome.

For data set [12], the system named is HCT-116. Description: Cytotoxicity against human HCT-116 cells assessed as reduction in cell viability upto 200 uM incubated for 48 hrs in the presence of cGAMP by celltiter 96 aqueous one solution cell proliferation assay. Format: functional, cell-based.
Data set [13] concerns the target Stimulator of interferon genes protein (Homo sapiens) (UniProt Q86WV6). The data set can be described thus: Activation of STING-mediated immune response in human THP-1 cells transfected with ISRE reporter assessed as increase in cGAMP-induced ISRE activation by measuring fold change at 25 to 50 uM preincubated with compound for 1 hrs followed by cGAMP addition and measured after 24 hrs by luciferase reporter gene assay. Format: cell-based. Particulars: filed as activator, dose 25-50 µM, time 25.0 hrs.

Data set [14] shares this target. The data set can be described thus: Activation of STING-mediated immune response in STING knockout human THP-1 cells transfected with ISRE reporter assessed as increase in cGAMP-induced ISRE activation upto 50 uM preincubated with compound for 1 hrs followed by cGAMP addition and measured after 24 hrs by luciferase reporter gene assay. The settings on record: time 25.0 hrs. Format: cell-based.

Data set [15] relates to THP-1. Description: Cytotoxicity against human THP-1 cells assessed as reduction in cell viability upto 50 uM incubated for 24 hrs in the presence of cGAMP by celltiter 96 aqueous one solution cell proliferation assay. Format: toxicity, cell-based. Particulars: thp-1, 24 h.
Data set [16] in a line: Toxicity in BALB/c mouse implanted with mouse CT26 cells assessed as effect on body weight at 200 mg/kg, po administered for 2 weeks and measured on day 15. Format: organism-based. The settings on record: in vivo, 360 h, time 15 day.
Data set [17] has as its system CT26. The data set can be described thus: Immunological memory derived antitumor activity against mouse CT26 cells implanted in BALB/c mouse assessed as tumor growth regression at 200 mg/kg, po preadministered with compound for 2 weeks followed by reinoculation of CT26 cells and measured on day 19 relative to control. The data set is classed as functional. The settings on record: time 19 day.

Data set [18] in a line: Toxicity in BALB/c mouse implanted with mouse CT26 cells assessed as effect on body weight at 200 mg/kg, po preadministered with compound for 2 weeks followed by reinoculation of CT26 cells and measured on day 19 in the presence of anti-PD-L1 antibody. The data set is classed as organism-based. Particulars: in vivo, 456 h, time 19 day.

Data on one molecule can be found in ChEMBL document CHEMBL5370672, “Discovery of Orally Bioavailable Phthalazinone Analogues as an ENPP1 Inhibitor for STING-Mediated Cancer Immunotherapy” (J Med Chem, 2023).

Each structure is given as a SMILES string. Activity calls are given as the source filed them. The rule behind the calls is not given here. Where only a bound is given, the exact number is not on record here.

Chain of Stimulator of interferon genes protein (Homo sapiens) (Q86WV6 whole entry): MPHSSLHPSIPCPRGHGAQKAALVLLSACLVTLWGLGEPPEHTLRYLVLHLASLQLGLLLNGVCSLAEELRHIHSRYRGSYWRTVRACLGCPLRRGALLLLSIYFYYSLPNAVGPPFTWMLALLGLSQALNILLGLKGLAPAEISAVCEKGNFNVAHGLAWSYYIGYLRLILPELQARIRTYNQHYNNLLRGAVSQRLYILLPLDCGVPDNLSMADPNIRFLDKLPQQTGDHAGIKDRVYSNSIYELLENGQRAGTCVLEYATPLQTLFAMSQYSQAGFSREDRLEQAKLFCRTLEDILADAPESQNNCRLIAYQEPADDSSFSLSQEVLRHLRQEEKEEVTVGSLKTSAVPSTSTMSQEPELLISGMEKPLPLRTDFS

On to `Cn1nc(Cc2ccc(NS(N)(=O)=O)cc2)c2ccccc2c1=O`, for which the half-inhibitory concentration (IC50) in data set [1] is 68 nM; in [11], greater than 10000 nM. In addition, the Tmax in data set [2] stood at 100 min; in data set [5], 4.8 min. Also, the AUC(0-t) at 24 h in data set [3] was 79400 ng·h/mL. For the same molecule, the values for the total exposure AUC(0-inf) in [4] and in data set [7] were 79600 ng·h/mL and 30900 ng·h/mL, respectively. The molecule also registered a maximum concentration (Cmax) in data set [6] of 9540 ng/mL. Further, the clearance in data set [8] came out at 2.88 mL/min/kg. The remaining at 0.5 h in data set [9] was 87%. The CLint scaled in [10] was determined as 92.1 mL/min/kg. Besides, the Activity result in [12] was “Not toxic”; in data set [15] it was “Non-Toxic”; in [16] it was “Non-Toxic”; in data set [17] it was 100%; in data set [18] it was “Non-Toxic”. For the same molecule, the fold change (FC) in data set [13] was less than 30. Moreover, the outcome in [14] was inactive.
